In US20100028259A1, “USE OF ORGANIC CATION TRANSPORTERS FOR CANCER DIAGNOSIS AND THERAPY” (The Regents of the University of California, priority 2006, published 2010):
Like-named read-outs stand apart in the source and are kept apart here.

Columns and labels:
MDCK-MOCK cells [1] = assay: MTT drug sensitivity assay in MDCK-MOCK cells; type: cell-based, canine; conditions: read-out: IC50 MDCK-MOCK
Protocol: (§1) Cytotoxicity of the platinum-based compounds was measured by MTT (thiazolyl blue tetrazolium bromide) assay. Cells were seeded in 100 μl of the culture medium without any antibiotics in 96-well plates at a predetermined cell density. For HEK 293 cells, poly-D-lysine coated plates were used. After overnight incubation, the platinum-based compounds were then added to the culture medium to give the indicated final concentrations. For the OCT inhibitor studies, the inhibitors (i.e., disopyramide or cimetidine) were added to the medium at a specified concentration immediately before the addition of the platinum-based compounds. After incubation for a specified time period, the drug-containing medium was replaced with fresh, drug-free medium and the incubation was continued for a total of 72 hours (start from the addition of platinum-based compounds). Then, the MTT assay was performed similarly as described in Alley et al., Cancer Res., 48:589-601 (1988). […] The maximal cell growth was the cell growth in the medium without any platinum-based compounds; C is the concentration of the platinum-based compound, and γ is the slope factor.
(§2) Briefly, the cells were seeded in 96-well plates at a density of 5,000 cells/well for the transfected MDCK cells or 12,000 cells/well for the transfected HEK 293 cells. The platinum-based drugs were added on the following day. After the specified time periods of drug exposure, the drug-containing medium was replaced with fresh, drug-free medium, and the incubation was continued for a total of 72 hours (start from the time when the drug was added). After incubation, the cell growth was determined by an MTT assay. Data are expressed as mean±SD from 3 to 6 independent experiments with each performed in quadruplicate. The resistance factor (RF) was defined as the ratio of the mean IC50 value in the MOCK cells to that in the OCT-transfected cells.
(§3) Briefly, MDCK cells were seeded at a density of 5,000 cells/well in 96-well plates and exposed to the test compounds for 7 hours on the following day. After incubation for a total of 72 hours, the cell growth was determined by an MTT assay. The data for carboplatin was taken from Table 1 and was not determined simultaneously with the other compounds. The resistance factor (RF) was defined as the ratio of the mean IC50 value in MDCK-MOCK cells to that in MDCK-hOCT1 cells. Data are expressed as mean±SD from six measurements, and each measurement was performed in quadruplicate.

MDCK-hOCT1 cells [2] = assay: MTT drug sensitivity assay in MDCK-hOCT1 cells; type: cell-based, canine; conditions: read-out: IC50 MDCK-hOCT1
Protocol: as §1, with “After overnight incubation, the platinum-based compounds were then added to the culture medium to give the indicated final concentrations.” left out
as §2, §3

HEK-hOCT2 cells [3] = assay: Cellular accumulation of platinum in HEK-hOCT2 cells (ICP-MS); type: in vitro ADME, human; conditions: 2-hr exposure
Protocol: (§4) For the inhibitor studies, the incubation medium also contained disopyramide (150 μM). […] For the inhibitor studies, the incubation medium also contained cimetidine (1.5 mM). […] After drug exposure, the cells were washed with ice-cold PBS three times and harvested by scraping and centrifugation. The cell-associated platinum was determined by ICP-MS and normalized for protein content. Data are expressed as mean±SD from a single experiment performed in triplicate. Experiments were replicated for OCT1 and OCT2, and similar results were obtained.
(§5) The cellular accumulation of platinum was determined as described in Holzer et al., Mol. Pharmacol., 66:817-823 (2004) with some modifications. Briefly, the cells were grown in 100 mm×20 mm dishes in the culture medium without any antibiotics to over 90% confluence. For HEK 293 cells, poly-D-lysine coated dishes were used. For platinum accumulation, the cells were incubated in the culture medium containing the indicated concentrations of the platinum compounds at 37° C. in 5% CO2 for 2 hr unless specified. After incubation, the dishes were immediately placed on ice and the cells were washed with 6 ml of ice-cold PBS for three times and collected with a rubber policeman. The cell pellets were obtained by centrifugation at 400×g and at 4° C. for 15 min. For the OCT inhibitor studies, the incubation medium also contained the indicated inhibitor (i.e., disopyramide or cimetidine) in addition to the platinum-based compounds. The resulting cell pellets were then dissolved into 200 μl of 70% nitric acid at 65° C. for at least 2.5 hours, and then distilled water containing 10 ppb of iridium (Sigma) and 0.1% Triton X-100 was added to the samples to dilute nitric acid to 7%. The platinum content was measured by inductively plasma coupled mass spectrometry (ICP-MS) in the Analytical Facility at the University of California at Santa Cruz (Santa Cruz, Calif.). Cell lysates from a set of identical cultures were used for BCA protein assay.

HEK-hOCT2 cells [4] = assay: MTT drug sensitivity assay in HEK-hOCT2 cells; type: cell-based, human; conditions: drug exposure 7 hour; read-out: IC50 HEK-hOCT2
Protocol: as §1, with “After overnight incubation, the platinum-based compounds were then added to the culture medium to give the indicated final concentrations.” left out
as §2

MDCK-hOCT1 cells [5] = assay: Cellular accumulation of platinum in MDCK-hOCT1 cells (ICP-MS); type: in vitro ADME, canine; conditions: 2-hr exposure
Protocol: as §4, §5

HEK-MOCK cells [6] = assay: Cellular accumulation of platinum in HEK-MOCK cells (ICP-MS); type: in vitro ADME, human; conditions: cimetidine 1.5 mM
Protocol: as §4
The cellular accumulation of platinum was determined as described in Holzer et al., Mol. Pharmacol., 66:817-823 (2004) with some modifications. Briefly, the cells were grown in 100 mm×20 mm dishes in the culture medium without any antibiotics to over 90% confluence. For HEK 293 cells, poly-D-lysine coated dishes were used. For platinum accumulation, the cells were incubated in the culture medium containing the indicated concentrations of the platinum compounds at 37° C. in 5% CO2 for 2 hr unless specified. […] The platinum content was measured by inductively plasma coupled mass spectrometry (ICP-MS) in the Analytical Facility at the University of California at Santa Cruz (Santa Cruz, Calif.). […]

HEK-MOCK cells [7] = assay: MTT drug sensitivity assay in HEK-MOCK cells (control of HEK-hOCT3); type: cell-based, human; conditions: drug exposure 7 hour; Table 3
Protocol: as §1, §2

HEK-hOCT3 cells = assay: MTT drug sensitivity assay in HEK-hOCT3 cells; type: cell-based, human; conditions: drug exposure 7 hour
Protocol: as §1, with “After overnight incubation, the platinum-based compounds were then added to the culture medium to give the indicated final concentrations.” left out
as §2

MDCK-MOCK cells [8] = assay: Cellular accumulation of platinum in MDCK-MOCK cells (ICP-MS); type: in vitro ADME, canine; conditions: 2-hr exposure, drug 15 μM
Protocol: as §4, §5

HEK-MOCK cells [9] = assay: MTT drug sensitivity assay in HEK-MOCK cells (control of HEK-hOCT2); type: cell-based, human; conditions: drug exposure 7 hour; Table 2; read-out: IC50 HEK-MOCK
Protocol: as §1, §2

[10] = SAR study Table 4, 7 hours of drug exposure
[11] = drug exposure 7 hour, MTT at 72 hours, Table 1

| Compound | IC50 (MDCK-MOCK cells [1]; [10]) [µM] | IC50 (MDCK-hOCT1 cells [2]; [10]) [µM] | fold higher platinum accumulation rate, HEK-hOCT2 vs HEK-MOCK (HEK-hOCT2 cells [3]) [fold] | cellular platinum accumulation rate in HEK-hOCT2 (HEK-hOCT2 cells [3]; drug 10 μM) [pmol/mg protein-hr] | IC50 (MDCK-MOCK cells [1]; [11]) [µM] | IC50 (HEK-hOCT2 cells [4]) [µM] | cellular platinum accumulation rate in MDCK-hOCT1 (MDCK-hOCT1 cells [5]; drug 15 μM) [pmol/mg protein-hr] | effect of disopyramide on platinum accumulation rate in MDCK-hOCT1 (MDCK-hOCT1 cells [5]; disopyramide 150 μM) | effect of cimetidine on platinum accumulation / cellular uptake in HEK-MOCK (HEK-MOCK cells [6]) | IC50 (HEK-MOCK cells [7]) [µM] | IC50 (HEK-hOCT3 cells) [µM] | IC50 (MDCK-hOCT1 cells [2]; [11]) [µM] | cellular platinum accumulation rate in MDCK-MOCK (MDCK-MOCK cells [8]) [pmol/mg protein-hr] | IC50 (HEK-MOCK cells [9]) [µM] |
| --- | --- | --- | --- | --- | --- | --- | --- | --- | --- | --- | --- | --- | --- | --- |
| O=C1[O][Pt]2([NH]C3CCCCC3[NH]2)[O]C1=O [[Pt(S,S-DACH)oxalato]] | 30 ± 14.2 | 1.45 ± 1.16 |  |  |  |  |  |  |  |  |  |  |  |  |
| N.NC1CCCCC1.[Cl][Pt][Cl] [cis-[Pt(NH3)(Cy)Cl2]] | 1.42 ± 0.15 | 0.16 ± 0.03 |  |  |  |  |  |  |  |  |  |  |  |  |
| N.N.O=C([O-])C1(C(=O)[O-])CCC1.[Pt+2] [carboplatin] | 258 ± 86.3 | 227 ± 85.8 | 1.38 | 4.17±0.18 | 258 ± 86.3 | 61.6 ± 46.3 | 2.77±0.36 | not inhibited by disopyramide | little effect | 84.8 ± 9.71 | 48.1 ± 23.4 | 227 ± 85.8 | 2.22±0.07 | 110 ± 46.3 |
| [Cl][Pt]1([Cl])[NH]C2CCCCC2[NH]1 [[Pt(R,R-DACH)Cl2]] | 15 ± 3.24 | 0.65 ± 0.26 |  |  |  |  |  |  |  |  |  |  |  |  |
